Results reported in US20130085073A1, “CONTINUOUS EXTENSION AND DEBLOCKING IN REACTIONS FOR NUCLLEIC ACIDS SYNTHESIS AND SEQUENCING” (ILLUMINA CAMBRIDGE LIMITED, priority 2011, published 2013).

Experiments:
Pol 217 = Pol 217 catalyzed primer extension: incorporation of blocked nucleotide analog into primer DNA (urea gel analysis); assay type: biochemical; conditions: for incorporation of phosphodiester blocked nucleotides by Pol 217: nucleotide 10 μM
Procedure: Pol 217 (15 μg/ml) was incubated at 30° C. in Pol buffer (50 mM TRIS pH 7.5, 0.05% Tween 20, 6 mM MgSO4, 1 mM EDTA, 50 mM NaCl) with 20 nM DNA (P21 primer annealed to Diff template AG). A time zero aliquot was taken for each concentration and then pppT3′PO4(EO2 was added at 10, 5, 2 or 1 μM final concentration to start the reaction. Tubes are incubated at 30° C. and aliquots were taken at 0.33, 0.66, 1, 2, 5, and 15 mins from the 4 reaction tubes for quenching and 15% urea acrylamide gel analysis. 1 mM dNTPs were added to the remaining 4 reaction tubes and after a further 10 mins an aliquot was taken for gel analysis (chase).
Pol 217 was tested in Pol buffer at 55° C.
Incorporation of gamma hexynyl-pppT3′PO4Me2 was tested in Pol buffer at 65° C. with 10 μM nucleotide and 15 μg/mlpolymerase (Pol217 or Bst). A time zero sample was removed before initiation of the reaction with nucleotide and aliquots were quenched for gel analysis at 0.33, 0.66, 1, 2, 5 and 15 minutes.

Vent exo- = Vent exo- (Thermococcus litoralis, UniProt P30317, D141A/DEL1082-1471/DEL495-1032/E143A); assay: Vent exo- polymerase primer extension with blocked nucleotide analog (gel analysis); assay type: biochemical; conditions: conditions tested; chase lane showed active polymerase
Klenow = biological target: T1, Klenow (Escherichia coli, UniProt P00582); assay: Klenow polymerase primer extension with blocked nucleotide analog (gel analysis); assay type: biochemical; conditions: conditions tested; chase lane showed active polymerase
T1 construct: Bst, Vent exo- and Klenow polymerases were tested

E. coli EndoIV = E. coli EndoIV (Escherichia coli, UniProt P0A6C1); conditions: for EndoIV removal of phosphotriester blocking moiety from primer DNA extended with the nucleotide: large quantities of E. coli EndoIV, 37° C. or 55° C., extended incubation times
Procedure: Primer DNA with either a 3′ PO4PrOH block (−ve and EndoIV) or a free 3′OH (+ve) was radiolabelled and bound to an A template strand. […] Aliquots were removed at 0, 5, 15, 30 and 60 min for quenching and gel analysis (left to right respectively). “+ve” is the time course for unblocked DNA plus EndoIV, “EndoIV” is blocked DNA plus E. coli EndoIV and “−ve” is blocked DNA without E. coli EndoIV.
Similar reactions to those described above in the context of FIG. 7 were conducted, but the blocked extension products were generated using Pol 217 to incorporate various phosphotriester nucleotides onto the primer DNA. […] Phosphotriester blocking moieties tested included pppT3′PO4(Et)2, pppT3′PO4(Et)(Pr-Cap), pppT3′PO4(Et)(PrOH), pppT3′PO4MeBu and pppT3′PO4(Et)(SSOH).
A ^33P biotinylated 10 A template hairpin (62mer) was bound to magnetic streptavidin beads (4 pmoles) (1) and incubated with Pol217 (15 μg/ml) in Pol buffer and 10 μM pppT3′PO4MeBu for 10 mins at 55° C. […] The DNA was then removed to a magnet and washed twice in 1×B+W buffer (5 mM TRIS pH 7.5, 0.5 mM EDTA, 1M NaCl) and then washed twice in Ada buffer (50 mM TRIS pH 8.3, 1 mM EDTA, 3 mM DTT, 1 mg/ml BSA). The DNA was then incubated in Ada buffer with Ada protein (225 pmoles) at 37° C. for 3 h (3). The DNA was then removed to a magnet and washed twice in 1×B+W and then twice in NEB 3 buffer and then divided into 2 aliquots. To one aliquot (4) (2 pmoles) was added Pol 217 (15 μg/ml), E. coli EndoIV 10 U and FFT (5 μM) in NEB 3 buffer to a total volume of 100 μl. The sample was incubated at 37° C. and at time points of 0, 3, 10, 30, 60 and 120 mins a 5 μl sample was removed and quenched for 12% gel analysis. After 120 mins 10 μl of 100 μM dNTP was added to the remaining sample to chase the primer to the end (if not blocked) and an aliquot was taken and quenched after a further 20 mins at 37° C. […] The second aliquot (2 pmoles) was treated similarly, but no E. coli Endo IV was added to the reaction mixture (w/o EndoIV).
Eight pmoles of biotinylated 10 A hairpin DNA (62mer) bound to magnetic streptavidin beads (1) was incubated with Pol 217 (15 μg/ml) in Pol buffer with 10 μM pppT3′PO4(Et)(SSOH) in 200 μl at 55° C. for 15 mins (2). Then 2 μl of 100 mM tri(hydroxylpropyl)phosphine (THP) was added to the tube and the samples incubated for a further 5 mins at 55° C. […] The DNA was then removed to a magnet and washed twice in 1×B+W and twice in NEB 3 buffer. The DNA was then divided into two aliquots. To the first aliquot (4 pmoles) was added 4 U E. coli EndoIV, 15 μg/ml Pol 217, 10 μM pppT3′PO4MeBu in 100 μl of NEB3 buffer (4) and the other aliquot (4 pmoles) had the same additions but no EndoIV (w/o EndoIV). At time points of 0, 1, 5, 10, 30, 60 and 120 mins and sample was removed and quenched for 12% gel analysis.

Bst = biological target: T2, Bst (Geobacillus stearothermophilus, UniProt P52026); assay: Bst polymerase primer extension with blocked nucleotide analog (gel analysis); assay type: biochemical
T2 sequence (P52026 1-876): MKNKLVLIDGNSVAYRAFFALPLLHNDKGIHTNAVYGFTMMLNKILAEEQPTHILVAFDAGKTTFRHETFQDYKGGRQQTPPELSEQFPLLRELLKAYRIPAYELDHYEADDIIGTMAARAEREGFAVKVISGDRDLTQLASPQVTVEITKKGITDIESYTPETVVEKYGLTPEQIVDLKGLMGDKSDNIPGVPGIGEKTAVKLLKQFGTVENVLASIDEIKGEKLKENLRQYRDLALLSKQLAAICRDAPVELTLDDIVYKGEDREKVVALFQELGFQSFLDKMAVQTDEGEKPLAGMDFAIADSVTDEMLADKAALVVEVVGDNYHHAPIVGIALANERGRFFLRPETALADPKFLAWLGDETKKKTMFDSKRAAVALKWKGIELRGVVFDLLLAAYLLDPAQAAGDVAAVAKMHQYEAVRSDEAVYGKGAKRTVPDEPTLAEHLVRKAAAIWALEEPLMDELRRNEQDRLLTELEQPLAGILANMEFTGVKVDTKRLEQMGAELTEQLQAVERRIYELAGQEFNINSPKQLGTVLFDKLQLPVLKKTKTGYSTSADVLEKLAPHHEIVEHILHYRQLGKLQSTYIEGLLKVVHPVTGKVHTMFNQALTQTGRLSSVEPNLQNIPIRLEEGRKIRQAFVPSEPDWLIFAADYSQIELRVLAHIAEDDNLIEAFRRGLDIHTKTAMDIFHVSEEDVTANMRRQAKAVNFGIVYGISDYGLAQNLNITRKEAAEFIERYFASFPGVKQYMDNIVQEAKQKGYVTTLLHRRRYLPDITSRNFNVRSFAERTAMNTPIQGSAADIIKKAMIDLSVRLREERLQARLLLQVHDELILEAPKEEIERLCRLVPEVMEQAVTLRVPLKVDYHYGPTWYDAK
Procedure: Incorporation of gamma hexynyl-pppT3′PO4Me2 was tested in Pol buffer at 65° C. with 10 μM nucleotide and 15 μg/mlpolymerase (Pol217 or Bst). A time zero sample was removed before initiation of the reaction with nucleotide and aliquots were quenched for gel analysis at 0.33, 0.66, 1, 2, 5 and 15 minutes. After 15 minutes, 5 μl of 100 μM dNTPs was added to the remaining reaction tubes (˜20 μl) and incubation continued for 10 mins before a chase aliquot was taken for gel analysis. Thus, for each polymerase there was a time course of 0, 0.33, 0.66, 1, 2, 5, 15 mins and chase shown from left to right across the gel in FIG. 13.

[1] = Fluorescence emission of quencher/dye labelled nucleotide; assay type: physicochemical
Procedure: The fluorescence emission of an approx. 4 μM solution of the quencher/dye labelled nucleotide 22, a 4 μM solution of Atto532 dye and an equimolar mixture of Atto532 dye and quencher labelled nucleotide 21 (4 μM) were measured in 10 mM Tris buffer pH 8.0, between 500 nm and 700 nm (excitation wavelength: 532 nm) (FIG. 23). The fluorescence of the nucleotide 22 was approximately 1500-fold lower than that of the free dye in solution, and approximately 1100-fold lower than the equimolar solution of the free dye and the quencher labelled nucleotide 21.

Endonuclease IV = Endonuclease IV (Escherichia coli, UniProt P0A6C1); conditions: 0.1 mM nucleotide, 500 units/mL Endonuclease IV, 37° C., pH 7.9, up to 3 days
Excerpt: Aliquots were taken at set time points and analyzed by HPLC chromatography.

Pol 427 = Pol 427 catalyzed primer extension: incorporation of blocked nucleotide analog (gel analysis); assay type: biochemical; conditions: Pol buffer, 37° C., 1 h, Pol 427 30 μg/ml
[2] = test system: Pol 217, E. coli Endo IV, Ada protein; assay: Single pot multi-cycle extension with Pol 217, Ada protein and Endo IV (gel); assay type: biochemical; conditions: 37° C., 10 μM nucleotide
Procedure: A tube was incubated at 37° C. containing Pol 217 (15 μg/ml-16.5 pmoles), E. coli Endo IV (10 U), Ada protein (1000 pmoles) in 100 μl of 50 mM TRIS pH 8.0, 1 mg/ml BSA, 50 mM NaCl, 10 mM MgSO4 with 2 pmoles of primer (21mer) annealed to 10 A template DNA. After a time zero aliquot was removed and quenched for gel analysis, the reaction was started by the addition of 10 μM pppT3′PO4MeBu. At time points of 10, 30, 60, 120 and 240 minutes an aliquot was removed and quenched for gel analysis. Negative controls are shown where one protein was left out of the mixture in turn. A positive control for incorporation is shown of 10 μM FFT.

[3] = approx. 4 μM, 10 mM Tris pH 8.0, excitation 532 nm

Sequence of Vent exo- (P30317 other isoform, or with tags, fused parts or gaps D141A/E143A/DEL495-1032/DEL1082-1471): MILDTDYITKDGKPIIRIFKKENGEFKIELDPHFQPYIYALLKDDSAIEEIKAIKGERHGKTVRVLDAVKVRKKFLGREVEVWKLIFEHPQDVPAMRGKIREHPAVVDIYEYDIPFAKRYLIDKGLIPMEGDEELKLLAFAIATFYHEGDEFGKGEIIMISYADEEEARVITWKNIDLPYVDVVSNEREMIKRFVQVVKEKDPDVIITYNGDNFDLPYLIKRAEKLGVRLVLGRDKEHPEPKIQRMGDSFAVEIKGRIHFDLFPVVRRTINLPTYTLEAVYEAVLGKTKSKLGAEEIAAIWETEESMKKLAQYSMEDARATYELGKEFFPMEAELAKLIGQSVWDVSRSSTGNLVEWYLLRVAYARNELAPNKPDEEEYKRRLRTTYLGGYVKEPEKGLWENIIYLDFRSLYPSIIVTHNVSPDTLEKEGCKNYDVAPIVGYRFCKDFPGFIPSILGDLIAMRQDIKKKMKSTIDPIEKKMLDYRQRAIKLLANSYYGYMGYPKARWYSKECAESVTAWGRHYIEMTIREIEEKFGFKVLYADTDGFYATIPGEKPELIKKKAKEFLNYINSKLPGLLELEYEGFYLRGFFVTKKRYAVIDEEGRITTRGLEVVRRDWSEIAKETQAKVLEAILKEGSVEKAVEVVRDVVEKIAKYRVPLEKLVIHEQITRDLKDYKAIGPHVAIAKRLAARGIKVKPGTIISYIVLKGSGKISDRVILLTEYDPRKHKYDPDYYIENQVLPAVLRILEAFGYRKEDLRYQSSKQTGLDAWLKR
T1 sequence (P00582 324-928): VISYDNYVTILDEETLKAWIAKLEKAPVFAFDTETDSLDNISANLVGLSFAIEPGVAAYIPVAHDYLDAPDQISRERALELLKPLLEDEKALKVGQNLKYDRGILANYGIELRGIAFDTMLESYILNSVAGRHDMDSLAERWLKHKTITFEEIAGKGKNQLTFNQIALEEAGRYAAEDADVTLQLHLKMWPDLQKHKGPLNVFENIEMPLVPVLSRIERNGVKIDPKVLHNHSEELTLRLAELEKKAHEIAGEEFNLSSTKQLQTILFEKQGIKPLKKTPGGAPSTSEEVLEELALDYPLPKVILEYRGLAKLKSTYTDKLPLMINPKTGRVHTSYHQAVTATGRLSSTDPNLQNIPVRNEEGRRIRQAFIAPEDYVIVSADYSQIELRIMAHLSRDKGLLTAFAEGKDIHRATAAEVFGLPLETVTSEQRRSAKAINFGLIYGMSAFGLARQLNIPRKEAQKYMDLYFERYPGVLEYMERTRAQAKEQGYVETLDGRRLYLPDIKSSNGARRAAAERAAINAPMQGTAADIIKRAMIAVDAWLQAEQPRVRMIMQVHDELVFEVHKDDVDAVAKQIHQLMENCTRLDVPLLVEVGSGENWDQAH

Cc1cn(C2CC(OP(=O)(O)OCCCO)C(COP(=O)(O)OP(=O)(O)OP(=O)(O)O)O2)c(=O)[nH]c1=O (stereo not drawn) [pppT3′PO4PrOH]
incorporation of phosphodiester blocked nucleotides by Pol 217 (Pol 217; Pol buffer, 55° C.): substantial incorporation was not observed

CCOP(=O)(OCC)O[C@H]1C[C@H](n2cc(C)c(=O)[nH]c2=O)O[C@@H]1COP(=O)(O)OP(=O)(O)OP(=O)(O)O [pppT3′PO4(Et)2, 5′-triphosphate 3′-(O,O′-diethyl phosphate) thymidine]
incorporation by Vent exo- polymerase (Vent exo-): did not show any incorporation bands
incorporation by Klenow polymerase (Klenow): did not show any incorporation bands
EndoIV removal of phosphotriester blocking moiety from primer DNA extended with the nucleotide (E. coli EndoIV): failed to allow subsequent incorporation
incorporation by Bst polymerase (Bst; conditions tested, chase lane showed active polymerase): did not show any incorporation bands
extension of primer after chase with natural dNTPs (3′ block) (Pol 217; 30° C., 1 mM dNTPs chase, 10 mins): creates a 3′ blocked primer
incorporation into primer DNA by Pol 217 (n+1 band) (Pol 217; 30° C., Pol buffer, nucleotide 10, 5, 2 or 1 μM, 20 nM DNA, 0-15 min): extension by one base
time to complete incorporation by Pol217 (Pol 217; 65° C., incorporation buffer, 10 μM nucleotide): ≤ 20 s

CCOP(=O)(OCCCO)OC1CC(n2cc(C)c(=O)[nH]c2=O)OC1COP(=O)(O)OP(=O)(O)OP(=O)(O)O (stereo not drawn) [pppT3′PO4(Et)(PrOH)]
EndoIV removal of phosphotriester blocking moiety from primer DNA extended with the nucleotide (E. coli EndoIV): failed to allow subsequent incorporation

Cc1cn(C2CC(OP(=O)(O)O)C(COP(=O)(O)OP(=O)(O)OP(=O)(O)O)O2)c(=O)[nH]c1=O (stereo not drawn) [pppT 3′PO4]
incorporation of phosphodiester blocked nucleotides by Pol 217 (Pol 217; Pol buffer, 55° C.): incorporation was observed but the band on the gel chased away

5′-(γ-(BHQ2-peg3)triphosphate) 3′-(O-(12-(Atto532)amidododecyl)phosphate)thymidine [nucleotide 22]
fluorescence lower than that of the free dye (Atto532) in solution [1, 3]: approximately 1500 fold
fluorescence lower than the equimolar solution of free dye and quencher labelled nucleotide 21 [1, 3]: approximately 1100 fold
quenching of fluorescence emission by BHQ2 ([1]; dye and quencher both on the nucleotide): > 99%

C#CCCCCOP(=O)(O)OP(=O)(O)OP(=O)(O)OCC1OC(n2cc(C)c(=O)[nH]c2=O)CC1OP(=O)(OC)OC (stereo not drawn) [gamma hexynyl-pppT3′PO4Me2, 5′-(γ-(5-hexynyl)triphosphate) 3′-(O,O′-dimethyl phosphate) thymidine]
band for extended primer with Bst (Bst; Pol buffer, 65° C., 10 μM nucleotide): absent
incorporation by Pol 217 and chase (Pol 217; Pol buffer, 65° C., 10 μM nucleotide, 0-15 min then dNTP chase): an incorporation band of n+1 was generated over time which did not chase away

CCOP(=O)(O)OC1CC(n2cc(C)c(=O)[nH]c2=O)OC1COP(=O)(O)O (stereo not drawn) [pT-3′PO4Et, 5′ monophosphate T-3′PO4Et]
removal of 3′ phosphodiester blocking moiety from free nucleotide by EndoIV (HPLC) (Endonuclease IV): No deblocked pT-3′PO4Et was observed even after 3 days

5′-(γ-(BHQ2-peg3)triphosphate) 3′-(O-(12-aminododecyl)phosphate)thymidine [nucleotide 21]
quenching of free Atto532 dye by quencher labelled nucleotide in equimolar mixture ([1]; 4 μM each, 10 mM Tris pH 8.0, excitation 532 nm): does not quench efficiently

CCOP(=O)(O)O[C@H]1C[C@H](n2cc(C)c(=O)[nH]c2=O)O[C@@H]1COP(=O)(O)OP(=O)(O)OP(=O)(O)O [pppT3′PO4Et, 5′ triphosphate 3′ (O-ethyl phosphate) thymidine]
incorporation of phosphodiester blocked nucleotides by Pol 217 (Pol 217; Pol buffer, 55° C.): low level incorporation was observed

CCOP(=O)(OCc1cc2c(cc1[N+](=O)[O-])OCO2)O[C@H]1C[C@H](n2cc(C)c(=O)[nH]c2=O)O[C@@H]1COP(=O)(O)OP(=O)(O)OP(=O)(O)O (stereo partly drawn) [pppT3′PO4(Et)(NPIP), 5′-triphosphate 3′-(O-ethyl, O′-(6-nitropiperonyl)phosphate) thymidine]
incorporation into primer by Pol 427 (Pol 427): converted to n+1

CCCCOP(=O)(OC)O[C@H]1C[C@H](n2cc(C)c(=O)[nH]c2=O)O[C@@H]1COP(=O)(O)OP(=O)(O)OP(=O)(O)O (stereo partly drawn) [pppT3′PO4MeBu, 5′ triphosphate 3′ (O-methyl, O′-butyl phosphate) thymidine]
length of extension product in single pot reaction, all three proteins present ([2]; 10-240 minutes): gradually increased over the time course from n+1 to n+2, then n+3, then n+4
incorporation in single pot reaction in the absence of Ada or EndoIV ([2]; no Ada or no EndoIV): a single incorporation event occurred
EndoIV unblocking of extended primer after Ada protein treatment (E. coli EndoIV; Ada protein 37° C. 3 h, then E. coli EndoIV 10 U, Pol 217, FFT, 37° C., 0-120 mins): unblocked by EndoIV
EndoIV removal of phosphotriester blocking moiety from primer DNA extended with the nucleotide (E. coli EndoIV): failed to allow subsequent incorporation
incorporation into 10 A hairpin DNA on streptavidin beads by Pol 217 (Pol 217; Pol buffer, 55° C., 10 μM nucleotide, 10-15 mins): converted to n+1
